In the NIST ThermoML archive (doi:10.1021/je5010214):
± gives the expanded uncertainty stated by the source.

Details: Liquid, Vibrating tube method

CCCCCCC [heptane]
Details | mass density [kg/m3]
303.15 K, 19974 kPa | 693.813 ± 0.88
303.15 K, 21920 kPa | 695.403 ± 0.88
303.15 K, 24992 kPa | 697.736 ± 0.9
303.15 K, 31958 kPa | 702.727 ± 0.93
303.15 K, 32862 kPa | 703.514 ± 0.93
303.15 K, 33112 kPa | 703.9 ± 0.93
303.15 K, 34081 kPa | 704.468 ± 0.94
303.15 K, 34980 kPa | 705.109 ± 0.94
303.15 K, 37951 kPa | 707.216 ± 0.96
303.15 K, 39904 kPa | 708.418 ± 0.97
303.15 K, 42014 kPa | 709.635 ± 0.98
303.15 K, 44896 kPa | 711.236 ± 0.99
303.15 K, 47951 kPa | 713.224 ± 1
303.15 K, 50065 kPa | 714.711 ± 1
303.15 K, 52073 kPa | 715.915 ± 1
303.15 K, 55074 kPa | 717.452 ± 1.1
303.15 K, 57989 kPa | 719.654 ± 1.1
303.15 K, 59979 kPa | 720.537 ± 1.1
303.15 K, 62052 kPa | 721.855 ± 1.1
303.15 K, 64988 kPa | 723.925 ± 1.1
303.15 K, 66030 kPa | 724.328 ± 1.1
303.16 K, 2964.9 kPa | 678.337 ± 0.82
303.16 K, 7045.6 kPa | 682.343 ± 0.83
303.16 K, 8858.2 kPa | 683.448 ± 0.84
303.16 K, 10014 kPa | 684.334 ± 0.84
303.16 K, 18021 kPa | 692.198 ± 0.87
303.16 K, 27933 kPa | 699.906 ± 0.91
303.16 K, 29990 kPa | 701.007 ± 0.92
308.15 K, 105 kPa | 671.006 ± 0.81
308.15 K, 274.3 kPa | 671.143 ± 0.81
308.15 K, 494.1 kPa | 671.318 ± 0.81
308.15 K, 803.3 kPa | 671.687 ± 0.81
308.15 K, 1039.5 kPa | 672.093 ± 0.82
308.15 K, 1916.7 kPa | 672.909 ± 0.82
308.15 K, 2980.7 kPa | 674.097 ± 0.82
308.15 K, 4990.2 kPa | 676.132 ± 0.82
308.15 K, 6964.9 kPa | 678.143 ± 0.83
308.15 K, 8864.3 kPa | 679.887 ± 0.84
308.15 K, 9863.1 kPa | 680.761 ± 0.84
308.15 K, 12009 kPa | 682.857 ± 0.85
308.15 K, 17850 kPa | 687.815 ± 0.87
308.15 K, 19930 kPa | 689.488 ± 0.88
308.15 K, 21988 kPa | 691.177 ± 0.89
308.15 K, 25012 kPa | 693.658 ± 0.9
308.15 K, 27955 kPa | 695.718 ± 0.91
308.15 K, 29906 kPa | 696.905 ± 0.92
308.15 K, 31929 kPa | 698.302 ± 0.93
308.15 K, 32886 kPa | 699.002 ± 0.94
308.15 K, 32941 kPa | 698.96 ± 0.94
308.15 K, 34011 kPa | 700.438 ± 0.94
308.15 K, 37971 kPa | 703.176 ± 0.96
308.15 K, 40011 kPa | 704.309 ± 0.97
308.15 K, 41998 kPa | 705.614 ± 0.98
308.15 K, 45017 kPa | 707.854 ± 1
308.15 K, 48033 kPa | 709.906 ± 1
308.15 K, 50044 kPa | 711.265 ± 1
308.15 K, 51977 kPa | 712.584 ± 1
308.15 K, 54982 kPa | 714.563 ± 1.1
308.15 K, 58009 kPa | 716.265 ± 1.1
308.15 K, 60030 kPa | 717.688 ± 1.1
308.15 K, 61985 kPa | 718.959 ± 1.1
308.15 K, 64980 kPa | 720.569 ± 1.1
308.16 K, 15069 kPa | 685.368 ± 0.86
308.16 K, 34949 kPa | 701.078 ± 0.95
308.16 K, 66088 kPa | 721.543 ± 1.1
313.15 K, 100.8 kPa | 666.87 ± 0.81
313.15 K, 316 kPa | 667.185 ± 0.81
313.15 K, 569.6 kPa | 667.234 ± 0.81
313.15 K, 1088.8 kPa | 668.002 ± 0.82
313.15 K, 2109.7 kPa | 669.053 ± 0.82
313.15 K, 3137 kPa | 670.192 ± 0.82
313.15 K, 5111.8 kPa | 672.198 ± 0.83
313.15 K, 6921.8 kPa | 674.169 ± 0.83
313.15 K, 9210.7 kPa | 676.379 ± 0.84
313.15 K, 10209 kPa | 677.309 ± 0.84
313.15 K, 12020 kPa | 679.079 ± 0.85
313.15 K, 15059 kPa | 681.665 ± 0.86
313.15 K, 17921 kPa | 684.308 ± 0.87
313.15 K, 19932 kPa | 686.1 ± 0.88
313.15 K, 22058 kPa | 687.733 ± 0.89
313.15 K, 24862 kPa | 690.068 ± 0.9
313.15 K, 27869 kPa | 692.385 ± 0.91
313.15 K, 29957 kPa | 693.806 ± 0.92
313.15 K, 32107 kPa | 695.43 ± 0.93
313.15 K, 32980 kPa | 696.141 ± 0.94
313.15 K, 33002 kPa | 696.147 ± 0.94
313.15 K, 33981 kPa | 697.086 ± 0.94
313.15 K, 35045 kPa | 697.948 ± 0.95
313.15 K, 38127 kPa | 700.098 ± 0.96
313.15 K, 41978 kPa | 702.778 ± 0.99
313.15 K, 44946 kPa | 704.758 ± 1
313.15 K, 47880 kPa | 706.851 ± 1
313.15 K, 52097 kPa | 709.812 ± 1
313.15 K, 54924 kPa | 711.549 ± 1.1
313.15 K, 58082 kPa | 713.474 ± 1.1
313.15 K, 59932 kPa | 714.707 ± 1.1
313.15 K, 62004 kPa | 716.103 ± 1.1
313.15 K, 64954 kPa | 717.814 ± 1.1
313.15 K, 66113 kPa | 718.367 ± 1.1
313.16 K, 860.7 kPa | 667.671 ± 0.82
313.16 K, 39997 kPa | 701.327 ± 0.97
313.16 K, 50021 kPa | 708.33 ± 1
318.15 K, 100.7 kPa | 662.812 ± 0.81
318.15 K, 336.3 kPa | 663.228 ± 0.81
318.15 K, 1105.7 kPa | 663.94 ± 0.82
318.15 K, 1929.1 kPa | 664.905 ± 0.82
318.15 K, 2933.2 kPa | 665.972 ± 0.82
318.15 K, 8989 kPa | 672.331 ± 0.84
318.15 K, 10074 kPa | 673.533 ± 0.84
318.15 K, 11896 kPa | 675.253 ± 0.85
318.15 K, 18102 kPa | 681.046 ± 0.87
318.15 K, 19985 kPa | 682.727 ± 0.88
318.15 K, 22094 kPa | 684.679 ± 0.89
318.15 K, 29998 kPa | 691.196 ± 0.93
318.15 K, 33016 kPa | 693.259 ± 0.94
318.15 K, 33180 kPa | 693.331 ± 0.94
318.15 K, 37838 kPa | 697.046 ± 0.97
318.15 K, 40092 kPa | 698.439 ± 0.98
318.15 K, 44884 kPa | 701.561 ± 1
318.15 K, 47944 kPa | 703.663 ± 1
318.15 K, 54944 kPa | 708.215 ± 1.1
318.15 K, 57972 kPa | 710.506 ± 1.1
318.15 K, 59922 kPa | 711.605 ± 1.1
318.15 K, 65022 kPa | 714.898 ± 1.1
318.15 K, 66028 kPa | 715.438 ± 1.1
318.16 K, 590.9 kPa | 663.443 ± 0.81
318.16 K, 891 kPa | 663.766 ± 0.82
318.16 K, 5020.8 kPa | 668.355 ± 0.83
318.16 K, 6926.7 kPa | 670.309 ± 0.83
318.16 K, 14800 kPa | 678.075 ± 0.86
318.16 K, 24873 kPa | 686.865 ± 0.9
318.16 K, 27909 kPa | 689.38 ± 0.92
318.16 K, 31957 kPa | 692.414 ± 0.94
318.16 K, 34110 kPa | 694.119 ± 0.95
318.16 K, 35048 kPa | 694.934 ± 0.95
318.16 K, 41996 kPa | 699.6 ± 0.99
318.16 K, 49950 kPa | 705.2 ± 1
318.16 K, 52037 kPa | 706.412 ± 1
318.16 K, 61930 kPa | 712.85 ± 1.1
323.15 K, 102.3 kPa | 658.378 ± 0.81
323.15 K, 296.1 kPa | 658.71 ± 0.81
323.15 K, 528.4 kPa | 658.782 ± 0.81
323.15 K, 994.2 kPa | 659.429 ± 0.82
323.15 K, 2006.9 kPa | 660.61 ± 0.82
323.15 K, 2966.6 kPa | 661.806 ± 0.82
323.15 K, 4996.2 kPa | 663.968 ± 0.83
323.15 K, 7042.1 kPa | 666.276 ± 0.83
323.15 K, 9029.9 kPa | 667.858 ± 0.84
323.15 K, 10090 kPa | 669.742 ± 0.84
323.15 K, 11914 kPa | 670.973 ± 0.85
323.15 K, 15111 kPa | 674.373 ± 0.86
323.15 K, 17981 kPa | 677.251 ± 0.87
323.15 K, 20038 kPa | 678.71 ± 0.88
323.15 K, 21995 kPa | 680.737 ± 0.89
323.15 K, 24993 kPa | 683.213 ± 0.9
323.15 K, 32079 kPa | 689.177 ± 0.94
323.15 K, 33103 kPa | 689.972 ± 0.94
